Assay results from patent US8946441B2, “Polymorphs of an active pharmaceutical ingredient” (Sandoz AG, priority 2010, dated 2015).
Values after ≈ are worked out from the molar mass of the structure shown. One block for each compound: values may come before it.

Tests used:
[1] = Moisture sorption/desorption isotherm (SPS-11 moisture sorption analyzer); format: physicochemical; details: for hygroscopicity: 0% to 90% RH, 25°C
Description: The moisture sorption/desorption isotherms were recorded with a SPS-11 moisture sorption analyzer (MD Messtechnik, Ulm, D). […] The equilibrium condition for each step was set to a mass constancy of ±0.01% over 30 min. The temperature was 25±0.1° C.

[2] = Polymorphic stability on storage; format: physicochemical
[3] = form A, prior art references (EP1020454, US 7,361,676); cited from earlier work
[4] = Solubility determination of form I and form A in methanol/water (1:1 v/v), UV-spectrophotometry at 314 nm; format: physicochemical; details: MeOH/H2O 50%:50% v/v, 5 to 180 min, FIG. 8
Description: 25 mg of Febuxostat form I or form A, obtained according to the procedure described in EP1020454 were stirred in a mixture of 20 ml of methanol and water (1:1 v/v). 1 ml of the suspension was withdrawn from each suspension within a time range of 5 to 180 min with the aid of a volumetric pipette and filtered. The filtrate was diluted to 25 ml with a 50% (v/v) methanol/water mixture and the concentration was determined by UV-spectrophotometry at 314 nm (apparatus: Shimadzu UV 1800).
A calibration curve was determined based on a series of known concentrations in the same solvent system.

[5] = Water content according to Karl Fischer; format: physicochemical; details: stored at 20° C., ambient pressure, 0% up to 90% relative humidity
[6] = Kinetics of conversion to hemihydrate G in a mix of methanol and water; format: physicochemical
Source text: The solvent system methanol/water represents a model for the dissolution of solid states of Febuxostat, with the hemihydrate G representing a thermodynamic very stable form with low solubility in aqueous systems.

hygroscopicity [1]: non hygroscopic | water uptake ([1]; up to a relative humidity of 90%): no significant water uptake
SMILES: Cc1nc(-c2ccc(OCC(C)C)c(C#N)c2)sc1C(=O)O [Form II, 2-(3-cyano-4-isobutyloxy-phenyl)-4-methyl-5-thiazolecarboxylic acid]
polymorphic stability on storage ([2]; ambient temperature for 6 weeks): does not convert to another polymorphic form

SMILES: Cc1nc(-c2ccc(OCC(C)C)c(C#N)c2)sc1C(=O)O [form A, 2-(3-cyano-4-isobutyloxy-phenyl)-4-methyl-5-thiazolecarboxylic acid]
solubility [3]: 220 µg/mL (≈ 695 µM)

increase in solubility compared to form A [4]: approximately 20% | hygroscopicity ([1]; listed as polymorph I): nonhygroscopic | water content (KF) [5]: below 0.1% | kinetics of conversion to hemihydrate G compared to anhydrate A [6]: slower
SMILES: Cc1nc(-c2ccc(OCC(C)C)c(C#N)c2)sc1C(=O)O [form I, 2-(3-cyano-4-isobutyloxy-phenyl)-4-methyl-5-thiazolecarboxylic acid]
polymorphic stability on storage ([2]; stress conditions, 40° C. for 3 months): does not change its polymorphic state properties

stability on storage ([2]; ambient conditions in open atmosphere for 5 weeks): stable
SMILES: Cc1nc(-c2ccc(OCC(C)C)c(C#N)c2)sc1C(=O)O [tert.-amylalcohol solvate, 2-(3-cyano-4-isobutyloxy-phenyl)-4-methyl-5-thiazolecarboxylic acid]
